Experimental data published in patent US20090176772A1, “METHOD OF REVERSING LEFT VENTRICULAR REMODELING” (priority 2004, published 2009).

Assays:
[1] = tested on: dogs with chronic heart failure produced by multiple sequential intracoronary microembolizations; assay: Blood neurohumoral and electrolyte measurements in dogs with chronic heart failure; format: in vivo, dog; settings: mean±SEM; for T-PNE = transmyocardial norepinephrine: aorta minus coronary sinus
Description: (§1) The following example examines the effects of ranolazine alone and in combination with an angiotensin converting enzyme (ACE) inhibitor and in combination with a beta-blocker on the progression of left ventricular (LV) dysfunction and LV chamber remodeling in dogs with chronic heart failure produced by multiple sequential intracoronary microembolizations.
(§2) Chronic LV dysfunction and failure in dogs was produced by multiple sequential intracoronary embolizations with polystyrene Latex microspheres (77-109 μm in diameter) as previously described by Sabbah et al. (1991) Am. J. Physiol. 260:H1379-H1384. Coronary microembolizations were performed during cardiac catheterization under general anesthesia and sterile conditions. Anesthesia was induced using a combination of intravenous injections of hydromorphone (0.22 mg/kg), diazepam (0.2-0.6 mg/kg) and sodium pentobarbital 50-100 mg to effect. Plane of anesthesia was maintained throughout the study using 1% to 2% isoflurane. Left and right heart catheterization was performed via a femoral arteriotomy and venotomy. After each catheterization, the vessels were repaired using 6-0 silk and the skin closed with 4-0 suture. Microembolizations were discontinued when LV ejection fraction, determined angiographically, was between 30% and 40%. A period of 2 weeks was allowed after the last embolization to ensure that infarctions produced by the last microembolizations have completely healed and heart failure was established. The study protocol was then performed.
(§3) Healthy, conditioned, purpose-bred mongrel dogs weighing between 19 and 25 kg.
(§4) A randomized, blinded, placebo controlled study design was used. A total of 28 dogs underwent multiple sequential intracoronary microembolizations as described above to produce chronic heart failure. Two weeks after the last embolization, dogs were randomized into 4 study groups (treatment arms). Dogs were randomized to 3 months oral therapy with ranolazine alone (375 mg, bid, n=7), ranolazine (375 mg bid) in combination with metoprolol tartrate (25 mg bid, n=7), ranolazine (375 mg bid) in combination with enalapril (10 mg bid, n=7), or placebo (ranolazine vehicle bid, n=7). Hemodynamic, angiographic, echocardiographic, Doppler and neurohumoral measurements were made prior to randomization (2 weeks after the last embolization) and after completion of therapy (3 months after initiating therapy). After completing the final hemodynamic and angiographic study, dogs were euthanized and the hearts removed and tissue prepared and saved for future histological and biochemical evaluations. The study primary and secondary end-points were as follows:
Evaluation of plasma concentrations of several neurohormones were made to complement the hemodynamic assessments. Measurements were made at each of the study time periods described for hemodynamic and angiographic assessments. Transmyocardial PNE concentration was estimated by obtaining blood samples from the ascending aorta and coronary sinus during cardiac catheterization. Transmyocardial PNE was calculated as the difference between the two samples. Venous blood samples were obtained in duplicate from conscious dogs prior to cardiac catheterizations for measurement of plasma concentration of norepinephrine, plasma renin activity and plasma atrial natriuretic factor using radioimmunoassay. In addition, blood samples were obtained at the same time intervals for determination of serum electrolytes (Na+, K+, creatinine and BUN).
(§5) To ensure that all study measures were similar at baseline, comparisons were made between all 4 study groups before any embolizations and at the time of randomization before initiation of therapy. For these comparisons, a one way analysis of variance (ANOVA) was used with a set at 0.05. If significance was attained, then group wise comparisons were made using the Student-Newman-Kuels test with significance set at p≦0.05. […]

[2] = tested on: dogs with chronic heart failure produced by multiple sequential intracoronary microembolizations; assay: Hemodynamic measurements in dogs with chronic heart failure, 3 months oral therapy; format: in vivo, dog
Description: as §1, §2, §3, §4
All hemodynamic measurements were made during left and right heart catheterizations in anesthetized dogs. Baseline measurements, prior to any microembolizations, were be made to ensure that all hemodynamic parameters are within normal limits. Abnormal dogs were excluded from the study. The following parameters were measured in all dogs at all three study time periods: heart rate, mean aortic pressure, peak rate of change of LV pressure during isovolumic contraction (peak+dP/dt) and relaxation (peak−dP/dt), and LV end-diastolic pressure.
as §5, with “p≦0.05. Within group comparisons between pre-treatment and post-treatment measures were made using a Students paired t-test with p<0.05 considered significant. To assess treatment effect, the change (Δ) in each measure from pre-treatment to post-treatment was calculated for each of the 4 study arms.” for “p≦0.05.”

[3] = POST: after 3 months of oral therapy bid
[4] = PRE: at time of randomization, before therapy
[5] = change from pre-treatment to post-treatment (3 months)
[6] = POST: after 3 months of oral therapy bid, mean±SEM
[7] = PRE: at time of randomization, before therapy, mean±SEM
[8] = change from pre-treatment to post-treatment (3 months), mean±SEM

## COc1ccccc1OCC(O)CN1CCN(CC(=O)Nc2c(C)cccc2C)CC1 (racemic) [RAN Alone, (±)-N-(2,6-dimethylphenyl)-4-[2-hydroxy-3-(2-methoxyphenoxy)-propyl]-1-piperazineacetamide]
[1]; [3]
  T-PNE = transmyocardial norepinephrine: −2.9 ± 6.1
  ANF = atrial natriuretic factor: 67 ± 11 pg/mL
  BUN = blood urea nitrogen: 15 ± 2 mg/dL
  Creat = serum creatinine: 1.0 ± 0.1 mg/dL
  K+ (serum electrolyte): 4.7 ± 0.1
  Na+ (serum electrolyte): 147 ± 0.8
  PNE = plasma norepinephrine: 199 ± 43 pg/mL
  PRA = plasma rennin activity: 1.57 ± .55 ng/mL/h
[1]; [4]
  T-PNE = transmyocardial norepinephrine: 8.6 ± 7.0
  ANF = atrial natriuretic factor: 87 ± 15 pg/mL
  BUN = blood urea nitrogen: 18 ± 2 mg/dL
  Creat = serum creatinine: 0.9 ± 0.0 mg/dL
  K+ (serum electrolyte): 4.5 ± 0.1
  Na+ (serum electrolyte): 147 ± 0.5
  PNE = plasma norepinephrine: 217 ± 25 pg/mL
  PRA = plasma rennin activity: 1.69 ± .71 ng/mL/h
[1]; [5]
  Δ ANF (atrial natriuretic factor): 20 ± 14 pg/mL
  Δ BUN (blood urea nitrogen): -2.1 ± 1.4 mg/dL
  Δ Creat (serum creatinine): 0.0 ± 0.1 mg/dL
  Δ K+: 0.1 ± 0.1
  Δ Na+: −0.3 ± 1.0
  Δ PNE (plasma norepinephrine): -19 ± 42 pg/mL
  Δ PRA (plasma rennin activity): 0.13 ± 0.92 ng/mL/h
  Δ T-PNE (transmyocardial norepinephrine): −11 ± 9
[2]; [6]
  +dP/dt = peak LV +dP/dt: 1416 ± 124 mmHg/sec
  HR = heart rate: 80 ± 4 beats/min
  LVEDP = LV end-diastolic pressure: 10 ± 1 mmHg
  mAoP = mean aortic pressure: 81 ± 7 mmHg
  −dP/dt = peak LV −dP/dt: 1460 ± 134 mmHg/sec
[2]; [7]
  +dP/dt = peak LV +dP/dt: 1253 ± 119 mmHg/sec
  HR = heart rate: 77 ± 2 beats/min
  LVEDP = LV end-diastolic pressure: 14 ± 1 mmHg
  mAoP = mean aortic pressure: 72 ± 3 mmHg
  −dP/dt = peak LV −dP/dt: 1254 ± 74 mmHg/sec
[2]; at the end of 3 months of treatment
  LV end-diastolic pressure, intra-group comparison pre- vs post-treatment: decreased significantly
[2]; [8]
  Δ +dP/dt (peak LV +dP/dt): 163 ± 81 mmHg/sec
  Δ HR (heart rate): 3.3 ± 4.9 beats/min
  Δ LVEDP (LV end-diastolic pressure): −4.4 ± 1.1 mmHg
  Δ mAoP (mean aortic pressure): 9.1 ± 6.9 mmHg
  Δ −dP/dt (peak LV −dP/dt): 206 ± 109 mmHg/sec
